Test results published in ChEMBL document CHEMBL1155896, “2-Amino-6-furan-2-yl-4-substituted nicotinonitriles as A2A adenosine receptor antagonists” (J Med Chem, 2008).
pKi: −log10 of the molar value.

Assays:
Adenosine receptor A2a [1] = biological target: T1, Adenosine receptor A2a (Homo sapiens, UniProt P29274); experiment: biochemical
[2] = biological target: T2, Adenosine receptor A3 (Homo sapiens) (UniProt P0DMS8); experiment: Displacement of [3H]AB-MECA from human adenosine A3 receptor expressed in HEK293 cell membrane at 1 uM; assay type: cell membranes
T2 sequence (whole entry): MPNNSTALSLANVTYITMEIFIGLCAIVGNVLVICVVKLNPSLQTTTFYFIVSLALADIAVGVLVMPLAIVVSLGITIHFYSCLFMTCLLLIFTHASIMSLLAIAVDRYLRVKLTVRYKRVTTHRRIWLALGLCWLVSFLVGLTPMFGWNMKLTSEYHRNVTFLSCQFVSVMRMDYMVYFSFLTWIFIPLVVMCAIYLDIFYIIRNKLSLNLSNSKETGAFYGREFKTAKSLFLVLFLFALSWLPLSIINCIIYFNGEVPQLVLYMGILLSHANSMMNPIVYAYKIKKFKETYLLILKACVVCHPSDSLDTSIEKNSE

[3] = biological target: T3, Adenosine receptor A2b (Homo sapiens) (UniProt P29275); experiment: Displacement of [3H]MRS1754 from human adenosine A2B receptor expressed in CHO cell membrane at 1 uM; assay type: cell membranes
T3 sequence (whole entry): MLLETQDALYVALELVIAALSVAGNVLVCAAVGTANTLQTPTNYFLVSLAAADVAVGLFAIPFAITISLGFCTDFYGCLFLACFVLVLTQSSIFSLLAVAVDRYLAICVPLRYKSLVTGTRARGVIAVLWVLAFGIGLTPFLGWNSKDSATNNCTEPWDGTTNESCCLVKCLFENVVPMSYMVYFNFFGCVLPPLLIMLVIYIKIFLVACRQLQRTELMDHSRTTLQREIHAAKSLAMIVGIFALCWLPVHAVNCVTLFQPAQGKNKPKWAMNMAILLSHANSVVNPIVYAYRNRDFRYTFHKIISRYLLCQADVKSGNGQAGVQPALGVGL

Adenosine receptor A1 = biological target: T4, Adenosine receptor A1 (Homo sapiens, UniProt P30542); experiment: biochemical
T4 sequence (P30542 whole entry): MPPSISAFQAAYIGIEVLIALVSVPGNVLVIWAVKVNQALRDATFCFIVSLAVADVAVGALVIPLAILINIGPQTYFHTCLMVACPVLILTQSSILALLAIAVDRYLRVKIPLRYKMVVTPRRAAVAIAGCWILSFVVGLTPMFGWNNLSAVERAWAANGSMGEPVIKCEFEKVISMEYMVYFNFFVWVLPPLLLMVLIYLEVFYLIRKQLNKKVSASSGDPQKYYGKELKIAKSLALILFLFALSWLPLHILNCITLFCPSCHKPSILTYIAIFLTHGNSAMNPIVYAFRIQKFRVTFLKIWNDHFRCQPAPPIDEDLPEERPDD

Adenosine receptor A2a [4] = biological target: T1, Adenosine receptor A2a
Description: Binding affinity to human adenosine A2A receptor

Adenosine receptor A2b = biological target: T5, Adenosine receptor A2b (Homo sapiens, UniProt P29275); experiment: Displacement of [3H]MRS1754 from human adenosine A2B receptor expressed in CHO cell membrane; assay type: cell membranes
T5 sequence (P29275 whole entry): T3 sequence (whole entry)

[5] = biological target: T6, Adenosine receptor A1 (Homo sapiens) (UniProt P30542); experiment: Displacement of [3H]DPCPX from human adenosine A1 receptor expressed in CHO cell membrane at 1 uM; assay type: cell membranes
T6 sequence (whole entry): T4 sequence (P30542 whole entry)

Adenosine receptor A2a [6] = biological target: T1, Adenosine receptor A2a; experiment: Displacement of [3H]ZM241385 from human adenosine A2A receptor expressed in HEK293 cell membrane at 1 uM; assay type: cell membranes
Adenosine receptor A2a [7] = biological target: T1, Adenosine receptor A2a; experiment: Displacement of [3H]ZM241385 from human adenosine A2A receptor expressed in HEK293 cell membrane
Adenosine receptor A3 = biological target: T7, Adenosine receptor A3 (Homo sapiens, UniProt P0DMS8); experiment: biochemical
T7 sequence (P0DMS8 whole entry): T2 sequence (whole entry)

T1 sequence (P29274 whole entry): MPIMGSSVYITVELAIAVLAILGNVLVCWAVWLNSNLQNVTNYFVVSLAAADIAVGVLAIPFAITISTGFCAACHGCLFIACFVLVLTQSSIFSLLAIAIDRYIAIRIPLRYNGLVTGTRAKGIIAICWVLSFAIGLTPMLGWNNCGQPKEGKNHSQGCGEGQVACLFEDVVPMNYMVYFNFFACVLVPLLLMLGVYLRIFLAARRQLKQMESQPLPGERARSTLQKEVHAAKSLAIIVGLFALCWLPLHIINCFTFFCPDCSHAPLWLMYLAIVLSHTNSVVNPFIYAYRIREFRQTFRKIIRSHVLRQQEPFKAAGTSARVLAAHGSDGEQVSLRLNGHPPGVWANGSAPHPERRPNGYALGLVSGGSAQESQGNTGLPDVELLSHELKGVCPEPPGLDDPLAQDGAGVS

Compound | pKi (Adenosine receptor A2a [1]) | Activity [2] [%] | Activity [3] [%] | pKi (Adenosine receptor A1) | also measured
COc1ccc(-c2cc(-c3ccco3)nc(N)c2C#N)cc1OC | 7.04 | 20 | 31 | 6.60 | 
N#Cc1c(-c2cccs2)cc(-c2cccs2)nc1N | 7.49 | 31 | 19 | 7.37 | 
CC(C)(C)OC(=O)N1CCN(c2cccc(-c3cc4nc(-c5ccco5)nn4c(N)n3)c2)CC1 |  |  |  |  | pKi (Adenosine receptor A2a [4]): 9.30
N#Cc1c(-c2cccs2)cc(-c2ccco2)nc1N | 8.85 | 51 |  | 7.55 | pKi (Adenosine receptor A2b): 7.12
Cc1cccc(-c2cc(-c3ccccc3)nc(N)c2C#N)c1 | 6.89 | 33 | 37 | 7.82 | 
N#Cc1c(-c2ccc(-c3ccccc3)cc2)cc(-c2ccco2)nc1N |  | 4 | 17 |  | Activity [5]: 0%; Activity (Adenosine receptor A2a [6]): 0%
N#Cc1c(-c2ccccc2)cc(-c2ccco2)nc1N | 7.96 | 28 |  | 7.55 | pKi (Adenosine receptor A2b): 6.77
N#Cc1c(-c2ccc(Cl)c(Cl)c2)cc(-c2ccco2)nc1N | 6.72 | 14 | 12 | 7.17 | 
N#Cc1c(-c2cccc(OC(F)(F)F)c2)cc(-c2ccco2)nc1N |  | 13 | 29 | 6.57 | Activity (Adenosine receptor A2a [7]): 260 nM
Nc1nc(CN[C@H]2CCCN2Cc2ccnc(Cl)c2)nc2nc(-c3ccco3)nn12 |  |  |  |  | pKi (Adenosine receptor A2a [4]): 8.40
N#Cc1c(-c2cccc(OC(F)(F)F)c2)cc(-c2ccccc2)nc1N | 7.24 | 28 | 7 | 7.47 | 
COc1ccc(-c2cc(-c3ccco3)nc(N)c2C#N)cc1 |  | 21 | 33 |  | 
COc1ccc(-c2cc(-c3ccccc3)nc(N)c2C#N)cc1OC | 6.80 | 32 | 13 | 7.18 | 
N#Cc1c(-c2ccc(O)cc2)cc(-c2ccccc2)nc1N |  | 18 | 18 | 7.21 | Activity (Adenosine receptor A2a [6]): 17%
Nc1nc(-c2ccco2)c2ncn(C(=O)NCc3ccccc3)c2n1 |  |  |  |  | pKi (Adenosine receptor A2a [4]): 8.96
CN(C)c1ccc(-c2cc(-c3ccccc3)nc(N)c2C#N)cc1 |  | 2 | 4 |  | Activity [5]: 12%; Activity (Adenosine receptor A2a [6]): 1%
N#Cc1c(-c2cccs2)cc(-c2ccccc2)nc1N | 7.27 | 11 | 44 | 7.66 | 
COc1ccccc1-c1cc2nc(-c3ccco3)nn2c(N)n1 |  |  |  |  | pKi (Adenosine receptor A2a [4]): 8.37
CC(C)c1ccc2c(c1)-c1nc(N)nc(-c3ccc(Br)o3)c1C2 |  |  |  |  | pKi (Adenosine receptor A2a [4]): 9.10
Nc1nc(N2CCN3C[C@@H](COc4cccc(F)c4)CC[C@H]3C2)nc2nc(-c3ccco3)nn12 |  |  |  |  | pKi (Adenosine receptor A2a [4]): 9.70

Compound | pKi (Adenosine receptor A2a [1]) | Activity [2] [%] | Activity [3] [%] | pKi (Adenosine receptor A1) | also measured
CC(C)Oc1ccc(-c2cc(-c3ccco3)nc(N)c2C#N)cc1 |  | 7 | 8 |  | Activity [5]: 19%; Activity (Adenosine receptor A2a [6]): 6%
Nc1nc(C(=O)NCCc2ccc(O)cc2)cn2nc(-c3ccco3)nc12 |  |  |  |  | pKi (Adenosine receptor A2a [4]): 9.00
N#Cc1c(-c2ccc(Cl)cc2)cc(-c2ccco2)nc1N | 6.85 | 21 | 33 | 7.32 | 
Cc1cccc(-c2cc(-c3ccco3)nc(N)c2C#N)c1 | 6.85 | 18 |  | 7.19 | pKi (Adenosine receptor A2b): 6.21
N#Cc1c(-c2ccccc2)cc(-c2ccc[nH]2)nc1N | 6.19 | 0 | 35 |  | Activity [5]: 28%
N#Cc1c(-c2ccc3c(c2)OCO3)cc(-c2ccco2)nc1N | 7.59 |  | 24 | 7.96 | pKi (Adenosine receptor A3): 6.41
Cc1ccc(-c2cc(-c3ccco3)nc(N)c2C#N)cc1 |  | 21 | 15 |  | Activity [5]: 47%; Activity (Adenosine receptor A2a [6]): 45%
OC[C@H]1O[C@@H](n2cnc3c(NC4CCCC4)ncnc32)[C@H](O)[C@@H]1O [N6-CYCLOPENTYLADENOSINE] | 5.77 |  |  |  | 
N#Cc1c(-c2ccco2)cc(-c2ccco2)nc1N | 9.00 | 33 |  | 7.92 | pKi (Adenosine receptor A2b): 7.47
N#Cc1c(-c2ccccc2)cc(-c2ccccc2)nc1N | 6.89 | 53 | 26 | 7.85 | 
Cc1ccc(-c2cc(-c3ccco3)nc(N)c2C#N)o1 | 7.82 | 24 |  | 7.00 | pKi (Adenosine receptor A2b): 6.36
N#Cc1c(-c2ccc(O)cc2)cc(-c2ccco2)nc1N | 7.39 | 34 |  | 7.27 | pKi (Adenosine receptor A2b): 6.43
Nc1nc2c(cnn2CCc2ccc(S(=O)(=O)N(CCO)CCO)cc2)c2nc(-c3ccco3)nn12 |  |  |  |  | pKi (Adenosine receptor A2a [4]): 9.92
CC(O)(C#Cc1cn2nc(-c3ccco3)nc2c(N)n1)Cc1ccncc1 (centres undefined) |  |  |  |  | pKi (Adenosine receptor A2a [4]): 8.96
N#Cc1c(-c2ccc3c(c2)OCO3)cc(-c2ccccc2)nc1N |  | 48 | 0 | 8.15 | Activity (Adenosine receptor A2a [6]): 34%
N#Cc1c(-c2ccco2)cc(-c2cccs2)nc1N | 7.92 | 39 |  | 7.54 | pKi (Adenosine receptor A2b): 6.42
N#Cc1c(-c2ccccc2)cc(-c2cccs2)nc1N | 7.06 | 32 | 41 | 7.92 | 
CN(C)c1ccc(-c2cc(-c3ccco3)nc(N)c2C#N)cc1 |  | 17 | 2 |  | Activity [5]: 11%; Activity (Adenosine receptor A2a [6]): 3.8%
N#Cc1c(-c2ccco2)cc(-c2ccccc2)nc1N | 7.72 | 29 |  | 8.24 | pKi (Adenosine receptor A2b): 6.66
